Laboratory results: patent US20240350521A1, “COMPOSITIONS AND METHODS FOR PREVENTING OR TREATING PRECOCIOUS PUBERTY” (TAIPEI MEDICAL UNIVERSITY, priority 2023, published 2024)

Key:
[1] = system: mice (recipient) raised in a specific-pathogen free environment; test: Animal Experiment 3: fecal microbiota transplantation (FMT), day of vaginal opening; assay type: in vivo; conditions: Danazol group, n = 6
Protocol: In this experiment, the fecal material collected in Experiment 2 (from donor) was transplanted to mice (recipient) raised in a specific-pathogen free environment. Pathogen free mice model was established by feeding 25 mL of cocktail antibiotics, which contain 50 mg of ampicillin, 50 mg of neomycin, 50 mg of metronidazole, and 25 mg of vancomycin.
(§1) Data were presented as means±standard deviation. Statistical analysis was performed on raw data using one-way analysis of variance (ANOVA). Comparisons among groups were made using the post hoc Tukey-HSD test. Day of vaginal opening, day of setup of regular cycle and day of establishment of 3 regular cycles were analyzed using survival analysis and were compared using the log-rank test. A two-tailed p-value<0.05 was considered significant.

[2] = system: female neonate Sprague-Dawley rats; test: Animal Experiment 1: puberty-related time points (vaginal opening, estrous cycle) in danazol-induced PP rats; assay type: in vivo
Protocol: A total of 129 female neonate Sprague-Dawley rats were housed in a humidity (67±1.5%) and temperature (24±2° C.)-controlled housing room of the Taipei Medical University's Laboratory Animal Center with a 12-hour light/dark cycle. They had free access to food and water.
(§2) Such rats were divided into Control, Danazol, MAG (monoammonium glycyrrhizinate), Danazol+Low-MAG (100 μg/kg/day), Danazol+Medium-MAG (200 μg/kg/day), and Danazol+High-MAG (400 μg/kg/day) groups. The day at birth was termed postnatal day (PND). Litters belonging to danazol-induced PP groups were given a single subcutaneous injection of 300 μg danazol (Sigma-Aldrich) dissolved in 30 μL vehicle composed of propylene glycerol and ethanol (1:1)^[7]. MAG was administered using oral gavage since PND 13. Offspring were weaned onto a normal chow diet and water at PND 21. Body weight was measured daily. The rats were examined daily for the vaginal opening, which was considered as a marker of pubertal onset.
(§3) MAG was prepared freshly at the beginning of the experiment daily by mixing MAG powder with sterilized water. The volume fed each day was calculated based on the MAG solubility (20 mg/mL), maximum volume tolerated (10 mL/kg/time), intended dose (either 100, 200, or 400 μg/kg/day), and the rat's body weight on that day. Those who were not in the MAG-fed groups were fed with the same volume of sterilized water. MAG doses were chosen based on existing guidelines for safe dosage in humans and previous work in animals. In more detail, the doses were about 5 to 20 times lower than the no-observed-adverse-effect-levels (NOAELs)^[8]. They reflect the normal physiological intake of this sweetener.
In this experiment, rats were fed with MAG daily until the end of experiment to maintain the long-term effect of drug tested. Vaginal smear was performed daily until they established three consecutive regular 4- or 5-day-cycles. The day of vaginal opening was the primary outcome. Moreover, the day of the setup of the regular cycle and the day of the establishment of 3 regular cycles were observed as secondary outcomes. The first day of diestrus or metestrus of the first cycle in the 3 consecutive regular estrous cycles was determined as the day of the setup of the regular cycle^[7]. The last day of diestrus of the last cycle in the 3 consecutive regular estrous cycles was determined as the day of establishment of 3 regular cycles^[9].
as §1

[3] = system: female neonate Sprague-Dawley rats; test: Animal Experiment 2: serum estrogen level on sacrifice day; assay type: in vivo
Excerpt: In this experiment, rats were raised until the model group (danazol) experienced vaginal opening. At that time, all of the rats were then sacrificed to (1) compare the differences between serum estrogen and luteinizing hormone (LH) levels; (2) compare the mRNA expression of GnRHa, k, Lin28a, Lin28b, let7a, let7b, GPR54, netrin-1, UNC5C, and MKRN3 in the hypothalamus using qPCR; and (3) compare the number of GnRH and kisspeptin neurons in the hypothalamus using immunohistochemistry (IHC).
(§4) Overnight fasting blood samples for glucose measurement were collected from tail veins two days before sacrifice. Blood samples for LH, estrogen, and other routine laboratory tests were collected from the abdominal aorta when sacrificing. Insulin resistance was then estimated using the triglyceride glucose (TyG) index. […] Also, the fecal samples were collected during these days to analyze gut microbiome, short chain fatty acids (SCFA), and reserve material for fecal microbiota transplantation (FMT) in Experiment 3.
Blood glucose in rodents was measured using the BioSystem glucose GOD/Peroxidase kit. LH levels were measured using the Enzo LH ELISA kit following the manufacturer's instructions. Samples for estrogen and other routine test were sent to a clinical laboratory.

precocious puberty = test: Taiwan Puberty Longitudinal Study cohort: sweetener intake and risk of precocious puberty (logistic regression); assay type: in vivo, human; conditions: for OR of precocious puberty: adjusted model
Protocol: The Taiwan Puberty Longitudinal Study (TPLS) was a multicenter project involving several hospitals in Taiwan. A total of more than 2,000 female adolescents aged from 6 to 16 years and male adolescents aged from 9 to 17 years had been recruited from pediatric endocrine clinics since 2018. Anthropometric measurements, pubertal stages exams, and interviews about physical activity and sleep quality were conducted quarterly. A comprehensive evaluation, including 24-hour food recall, fasting blood test, and parental interviews about their children's physical activity and sleep quality, was performed annually. Participants were followed up until reaching the late pubertal stages. Thorough market search, a comprehensive and semiquantitative food frequency questionnaire (FFQ), was created for glycyrrhizin intake evaluation in advance. A total of 39 glycyrrhizin-containing food and beverage products were listed in this non-nutritive sweetener food frequency questionnaire ([…])^[1]. The questionnaire was used to screen the level of glycyrrhizin consumption. The interval scale for frequency was measured as never or a number of times per day or per week. Glycyrrhizin consumption was described as the proportion relative to acceptable daily intake (ADI) set by the Joint FAO/WHO Expert Committee on Food Additives[2]. The glycyrrhizin exposure dose in % ADI was finally categorized as tertiles, ranging from T1 (0 to 0.0006), T2 (0.0006 to 0.002) to T3 (>0.002). […] Most of the added sugar came from sugar-sweetened beverages (SSB). The added-sugar exposure dose in % ADI was also categorized as tertiles, ranging from T1 (0 to 0.0013), T2 (0.0013 to 0.0044) to T3 (>0.0044). Precocious puberty (PP) was diagnosed in the presence of the following criteria: secondary sexual characteristics happen before the age of 8 years old, bone age advance greater than 2 years above chronological age, and peak luteinizing hormone (LH)≥5 after the gonadotropin-releasing hormone (GnRH) stimulation test^[3]. Body mass index (BMI) was calculated as weight in kilograms divided by height in meters squared and was then transformed into z-scores (zBMI) based on age- and sex-related reference charts for Taiwanese children^[4]. Participants were asked for their habitual activities, and the amount of time they spend for specific physical activities. The intensity of each activity was described as metabolic equivalent of task (MET)^[5]. Daily metabolic equivalent value (METD) was calculated by summarizing mean of the standard MET of each activity multiplied by the average daily duration. The sleep quality scores, ranging from 0 to 21, were assessed by the Pittsburgh Sleep Quality Index (PSQI) through a self-reported questionnaire^[6]. The total energy intake daily in kcal was estimated by the summary of energy intake from three major macronutrients, including carbohydrates, fat, and proteins. Parental education was assessed by interviews and classified as “senior high school and below,” “college,” or “graduate school and higher.” Odds ratios (ORs) for precocious puberty in participants consumed different doses of glycyrrhizin and added sugar were calculated from generalized linear models with logistic regression using glm( ) function. Models were adjusted for gender, age, zBMI, exercise time, sleep quality, total energy intake, and parental education. Atwo-tailed p-value of <0.05 was considered statistically significant. All analyses were performed using R software (version 4.0.2; RStudio; R Foundation for Statistical Computing, Inc., Boston, MA, USA).

[4] = MAG solubility in sterilized water; assay type: physicochemical; conditions: MAG powder mixed with sterilized water
Protocol: as §3

[5] = system: female neonate Sprague-Dawley rats; test: Body weight, reproductive organ coefficient weights, routine laboratory safety tests and TyG index in rats; assay type: in vivo
Protocol: as §2, §4
On the days of the vaginal opening in the model group, all animals were exsanguinated with normal saline following anesthesia. After perfusion, the hypothalamus was retrieved. Half of them were fixed in the 10% neutral-buffered formalin for IHC experiments, while the remaining half was embedded in RNAprotect reagent for qPCR experiments later. […]
Blood glucose in rodents was measured using the BioSystem glucose GOD/Peroxidase kit. LH levels were measured using the Enzo LH ELISA kit following the manufacturer's instructions. […]
Data were presented as means±standard deviation. […] Day of vaginal opening, day of setup of regular cycle and day of establishment of 3 regular cycles were analyzed using survival analysis and were compared using the log-rank test. […]

[6] = Danazol group (single s.c. 300 μg danazol), n = 6
[7] = Danazol + High-MAG (400 μg/kg/day, oral gavage), n = 15
[8] = Danazol + Low-MAG (100 μg/kg/day, oral gavage), n = 8
[9] = Danazol + Med-MAG (200 μg/kg/day, oral gavage), n = 8
[10] = MAG group (no danazol), oral gavage since PND 13, n = 5

SMILES: C#C[C@]1(O)CC[C@H]2[C@@H]3CCC4=Cc5oncc5C[C@]4(C)[C@H]3CC[C@@]21C [Danazol, danazol, reference compound]
- Day of vaginal opening (PND) [1]: 24.33 PND
- Day of establishment of 3 regular cycles [2, 6]: 38.17 ± 1.17
- Day of setup of regular cycle [2, 6]: 27.67 ± 1.51
- Day of vaginal opening [2, 6]: 23.00 ± 0.00
- Serum estrogen level ([3]; Danazol group): trend towards higher values

SMILES: CC1(C)[C@@H](O[C@H]2O[C@H](C(=O)O)[C@@H](O)[C@H](O)[C@H]2O[C@@H]2O[C@H](C(=O)O)[C@@H](O)[C@H](O)[C@H]2O)CC[C@]2(C)[C@H]3C(=O)C=C4[C@@H]5C[C@@](C)(C(=O)O)CC[C@]5(C)CC[C@@]4(C)[C@]3(C)CC[C@@H]12 [Glycyrrhizin, glycyrrhizin]
- OR of precocious puberty (precocious puberty; Female, exposure tertile T1 vs no intake): 0.479
- OR of precocious puberty (precocious puberty; Female, exposure tertile T2 vs no intake): 0.826
- OR of precocious puberty (precocious puberty; Female, exposure tertile T3 vs no intake): 0.969
- OR of precocious puberty (precocious puberty; Male, exposure tertile T1 vs no intake): 1.384
- OR of precocious puberty (precocious puberty; Male, exposure tertile T2 vs no intake): 0.422
- OR of precocious puberty (precocious puberty; Male, exposure tertile T3 vs no intake): 0.656
- OR of precocious puberty (precocious puberty; Total, exposure tertile T1 (% ADI: glycyrrhizin 0 to 0.0006, added sugar 0 to 0.0013) vs no intake): 0.607
- OR of precocious puberty (precocious puberty; Total, exposure tertile T2 (% ADI: glycyrrhizin 0.0006 to 0.002, added sugar 0.0013 to 0.0044) vs no intake): 0.687
- OR of precocious puberty (precocious puberty; Total, exposure tertile T3 (% ADI: glycyrrhizin >0.002, added sugar >0.0044) vs no intake): 0.857
- Risk of PP after full adjustment (precocious puberty; human cohort, consumption vs no intake): reduce the risk of PP

SMILES: CC1(C)[C@@H](O[C@H]2O[C@H](C(=O)O)[C@@H](O)[C@H](O)[C@H]2O[C@@H]2O[C@H](C(=O)O)[C@@H](O)[C@H](O)[C@H]2O)CC[C@]2(C)[C@H]3C(=O)C=C4[C@@H]5C[C@@](C)(C(=O)O)CC[C@]5(C)CC[C@@]4(C)[C@]3(C)CC[C@@H]12.N [MAG, monoammonium glycyrrhizinate]
- MAG solubility [4]: 20 mg/mL
- Liver enzyme, renal function, albumin, electrolyte panel and lipid profiles ([5]; all p>0.05): no safety concerns
- Body weight during puberty ([5]; among groups, p=0.448): no difference
- Insulin resistance (TyG index) at the end of the experiment ([5]; between groups, High-MAG vs Medium-MAG p=0.048): did not differ between groups, with the exception of a higher value in High-MAG than that of Medium-MAG
- Day of establishment of 3 regular cycles [2, 7]: 41.47 ± 2.85
- Day of setup of regular cycle [2, 7]: 28.93 ± 3.62
- Day of vaginal opening [2, 7]: 24.00 ± 2.45
- Day of establishment of 3 regular cycles [2, 8]: 44.13 ± 3.68
- Day of setup of regular cycle [2, 8]: 31.50 ± 3.63
- Day of vaginal opening [2, 8]: 25.13 ± 3.60
- Day of establishment of 3 regular cycles [2, 9]: 45.88 ± 4.19
- Day of setup of regular cycle [2, 9]: 33.38 ± 4.07
- Day of vaginal opening [2, 9]: 27.50 ± 5.01
- Day of establishment of 3 regular cycles [2, 10]: 49.00 ± 2.55
- Day of setup of regular cycle [2, 10]: 37.40 ± 3.44
- Day of vaginal opening [2, 10]: 32.60 ± 2.07
- Protection against PP over the whole estrous cycle ([2]; danazol-induced PP rats, most obvious effects with Low- and Medium-MAG groups): protected rats against PP following a dose-dependent manner
- Serum estrogen level ([3]; High-MAG group (danazol + 400 μg/kg/day)): trend towards higher values
